Reference: patent publication US20050107616A1, “Alpha-ketoamide derivatives as cathepsin k inhibitors” (priority 2001, published 2005)

Target: T1, human cathepsin K (Homo sapiens, UniProt P43235)
T1 construct: The proform of cathepsin K was converted to mature cathepsin K by brief exposure to pH 4; made in house; host or cells: baculovirus; Trichoplusia ni High Five cells (virus raised in Sf-9)
T1 sequence (P43235 115-329): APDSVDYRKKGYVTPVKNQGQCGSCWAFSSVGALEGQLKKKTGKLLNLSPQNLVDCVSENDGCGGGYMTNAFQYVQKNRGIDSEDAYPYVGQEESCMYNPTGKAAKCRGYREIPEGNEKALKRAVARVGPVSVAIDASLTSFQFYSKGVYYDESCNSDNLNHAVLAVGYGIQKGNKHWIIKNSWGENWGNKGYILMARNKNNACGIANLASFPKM
Test: Cathepsin K inhibition assay, fluorogenic substrate Cbz-Phe-Arg-AMC, progress curve method
Format: biochemical
Conditions: Table 1; human recombinant enzyme, pH 5.5, 30° C., 10 μM substrate; read-out: hCat K Ki
Protocol: All assays for cathepsin K were carried out with human and rat recombinant enzyme. Assays for cathepsins S Et V were also carried out with human recombinant enzyme. Assays for human cathepsins B. H. and L were carried out with enzyme, purchased from Athens Research and Technology, Inc., prepared from human liver tissue. […] A stock substrate solution of Cbz-Phe-Arg-AMC was prepared at a concentration of 50 mM in dimethyl sulfoxide. This substrate was diluted into the assay for a final substrate concentration of 10 μM in the rat cathepsin K, human cathepsin K, and human cathepsin B assays; a final substrate concentration of 5 μM in the human cathepsin L assay; and a final substrate concentration of 2 μM in the human cathepsin V assay.
All assays contained 10% dimethyl sulfoxide. […] All assays were conducted at 30° C. Product fluorescence (excitation at 360 nm; emission at 440 nm, (except cathepsin H which used excitation at 340 nm; emission at 420 nm)) was monitored with a PerSeptive Biosystems Cytofluor II fluorescence plate reader. Product progress curves were generated over 2.3 h monitoring the formation of 7-amino-4-methylcoumarin product (or β-naphthalamide for cathepsin H).
Two liters of Spodoptera frugiperda (Sf-9) cells (ATCC) were grown in Grace's Supplemented medium (Life Technologies) supplemented with 2 g/L glucose, 10% a fetal bovine serum (HyClone) and 0.10% pluronic F-68 (Life Technologies). […] The cells continued to grow for 72 h post-infection, before the virus was harvested by centrifugation at 1400× g for 30 min.
One and one-half liters of Trichoplusia ni (T. ni) High Five (TM) cells [JRH Biosciences, Woodland, Calif. […] Media were separated from cells at a rate of 1 L/min using the Centritech 100 (TM) continuous-flow centrifuge (DuPont) operating at 200× g.
Protein Purification: Media (human and rat) were filtered through a Whatman 3 filter, and then loaded onto a 25 mL Poros HS II (26 mm×47 mm) cation exchange column equilibrated in 25 mM sodium acetate at pH 5.5 (equilibration buffer). The column was washed until the absorbance reached the baseline value, and then the protein was eluted with a linear gradient from 0-2 M sodium chloride in the equilibration buffer. Column fractions were analyzed by SDS-PAGE, N-terminal sequencing, and mass spectrometry. Fractions containing the proform of cathepsin K were pooled and frozen at −80° C. The proform was concentrated in an Amicon Centriprep 10 and fractionated with a Superdex 75 column (26 mm×600 mm, Pharmacia) equilibrated in 400 mM sodium chloride, 25 mM sodium acetate at pH 5.5.
Cathepsin K Activation: The proform of cathepsin K was converted to mature cathepsin K by brief exposure to pH 4 in the presence of 5 mM L-cysteine. Typically, 5 mM L-cysteine was added to 10 mL of approximately 1 mg/mL procathepsin K. One mL of this solution was diluted ten-fold into 450 mM sodium acetate at pH 4.0 containing 5 mM L-cysteine. This solution was reacted at 23° C. for 2 min before neutralization with 2 mL 1.8 M sodium acetate at pH 6.0. The neutralized sample was added to the remaining 9 mL of procathepsin K. The mixture was incubated at 4° C. for 2-3 days. The activated cathepsin K was chromatographed on a Poros HS II column as described above.
Potential inhibitors were evaluated using the progress curve method. Assays were carried out in the presence of variable concentrations of test compound. Reactions were initiated by addition of buffered solutions of inhibitor and substrate to enzyme. Data analysis was conducted according to one of two procedures depending on the appearance of the progress curves in the presence of inhibitors. […] Ki values were calculated from IC50 values using equation 2 assuming a competitive model. [formula]

Row | SMILES | Ki [nM]
1 | CCCC[C@H](NC(=O)O[C@@H](c1nc2c(OCC)ccc(OCC)c2n1C)C(C)(C)C)C(=O)C(=O)Nc1ccn[nH]1 [Example 43] | 100 to 10000
2 | CCCC[C@H](NC(=O)O[C@H](Cc1nnc(-c2ccc(F)cc2)o1)C(C)(C)C)C(=O)C(=O)NCc1cccnc1 [Example 4, (1R)-1-{[5-(4-fluorophenyl)-1,3,4-oxadiazol-2-yl]methyl}-2,2-dimethylpropyl(1S)-1-{oxo[(3-pyridinylmethyl)amino]acetyl}pentylcarbamate] | 1 to 100
3 | CCCC[C@H](NC(=O)O[C@@H](Cc1nnc(-c2ccc(C(F)(F)F)cc2)o1)C(C)(C)C)C(=O)C(=O)N[C@H](C)c1ccccc1 [Example 18, (1S)-2,2-dimethyl-1-({5-[4-(trifluoromethyl)phenyl]-1,3,4-oxadiazol-2-yl}methyl)propyl(1S)-1-(oxo{[(1R)-1-phenylethyl]amino}acetyl)pentylcarbamate] | 100 to 10000
4 | CCCC[C@H](NC(=O)O[C@H](Cc1nnc(-c2ccc(F)cc2)o1)C(C)(C)C)C(=O)C(=O)Nc1ccccn1 [Example 21, (1R)-1-{[5-(4-fluorophenyl)-1,3,4-oxadiazol-2-yl]methyl}-2,2-dimethylpropyl(1S)-1-[oxo(2-pyridinylamino)acetyl]pentylcarbamate] | 100 to 10000
5 | CCCC[C@H](NC(=O)O[C@@H](c1nnc(-c2ccncc2)o1)C(C)(C)C)C(=O)C(=O)Nc1ccn[nH]1 [Example 55, (1R)-2,2-dimethyl-1-[5-(4-pyridinyl)-1,3,4-oxadiazol-2-yl]propyl (1S)-1-[oxo(1H-pyrazol-5-ylamino)acetyl]pentylcarbamate] | 100 to 10000
6 | CCCC[C@H](NC(=O)O[C@@H](Cn1cnc(-c2ccccc2)c1)C(C)(C)C)C(=O)C(=O)N[C@H](C)c1ccccc1 [Example 13, (1R)-2,2-dimethyl-1-[(4-phenyl-1H-imidazol-1-yl)methyl]propyl(1S)-1-(oxo{[(1R)-1-phenylethyl]amino}acetyl)pentylcarbamate] | 100 to 10000
7 | CCCC[C@H](NC(=O)O[C@@H](Cn1ccc(-c2ccc(C(F)(F)F)cc2)n1)C(C)(C)C)C(=O)C(=O)Nc1ccn[nH]1 [Example 2, (1R)-2,2-dimethyl-1-({3-[4-(trifluoromethyl)phenyl]-1H-pyrazol-1-yl}methyl)propyl(1S)-1-[oxo(1H-pyrazol-3-ylamino)acetyl]pentylcarbamate] | 1 to 100
8 | CCCC[C@H](NC(=O)O[C@@H](Cc1nnc(-c2ccc(F)cc2)o1)C(C)(C)C)C(=O)C(=O)N[C@H](C)c1ccccc1 [Example 20, (1S)-1-{[5-(4-fluorophenyl)-1,3,4-oxadiazol-2-yl]methyl}-2,2-dimethylpropyl(1S)-1-(oxo{[(1R)-1-phenylethyl]amino}acetyl)pentylcarbamate] | 100 to 10000
9 | CCCC[C@H](NC(=O)O[C@@H](Cc1nnc(-c2ccccc2)o1)C(C)(C)CC)C(=O)C(=O)N[C@H](C)c1ccccc1 [Example 9, (1S)-2,2-dimethyl-1-[(5-phenyl-1,3,4-oxadiazol-2-yl)methyl]butyl(1S)-1-(oxo{[(1R)-1-phenylethyl]amino}acetyl)pentylcarbamate] | 100 to 10000
10 | CCCC[C@H](NC(=O)O[C@@H](c1cccc(-c2ccccc2)c1)C(C)(C)C)C(=O)C(=O)Nc1ccn[nH]1 [Example 41, (1R)-1-[1,1′-biphenyl]-3-yl-2,2-dimethylpropyl(1S)-1-[oxo(1H-pyrazol-5-ylamino)acetyl]pentylcarbamate] | 100 to 10000

Second part, the molecule after the results:

Row | Ki [nM] | SMILES
11 | 1 to 100 | CCCC[C@H](NC(=O)O[C@H](Cn1ccc(-c2ccc(C(F)(F)F)cc2)n1)C(C)(C)C)C(=O)C(=O)Nc1ccccn1 [Example 5, (1S)-2,2-dimethyl-1-({3-[4-(trifluoromethyl)phenyl]-1H-pyrazol-1-yl}methyl)propyl(1S)-1-[oxo(2-pyridinylamino)acetyl]pentylcarbamate]
12 | 0.01 to 1 | CCCC[C@H](NC(=O)O[C@H](Cn1cnc2ccccc21)C(C)(C)C)C(=O)C(=O)Nc1ccn[nH]1 [Example 27, (1S)-1-(1H-benzimidazol-1-ylmethyl)-2,2-dimethylpropyl(1S)-1-[oxo(1H-pyrazol-5-ylamino)acetyl]pentylcarbamate]
13 | 0.01 to 1 | CCCC[C@H](NC(=O)O[C@H](Cn1cnc(Cc2ccccc2)c1)C(C)(C)C)C(=O)C(=O)Nc1ccn[nH]1 [Example 34, (1S)-1-[(4-benzyl-1H-imidazol-1-yl)methyl]-2,2-dimethylpropyl(1S)-1-[oxo(1H-pyrazol-5-ylamino)acetyl]pentylcarbamate]
14 | 0.01 to 1 | CCCC[C@H](NC(=O)O[C@H](Cc1nnc(-c2ccc(F)cc2)o1)C(C)(C)C)C(=O)C(=O)Nc1ccn[nH]1 [Example 23, (1R)-1-{[5-(4-fluorophenyl)-1,3,4-oxadiazol-2-yl]methyl}-2,2-dimethylpropyl(1S)-1-[oxo(1H-pyrazol-5-ylamino)acetyl]pentylcarbamate]
15 | 0.01 to 1 | CCCC[C@H](NC(=O)O[C@H](c1nnc(-c2ccncc2)o1)C(C)(C)C)C(=O)C(=O)Nc1ccn[nH]1 [Example 54, (1S)-2,2-dimethyl-1-[5-(4-pyridinyl)-1,3,4-oxadiazol-2-yl]propyl(1S)-1-[oxo(1H-pyrazol-5-ylamino)acetyl]pentylcarbamate]
16 | 0.01 to 1 | CCCC[C@H](NC(=O)O[C@H](Cn1cnc(-c2ccc(F)cc2)c1)C(C)(C)C)C(=O)C(=O)N[C@H](C)c1ccccc1 [Example 6, (1S)-1-{[4-(4-fluorophenyl)-1H-imidazol-1-yl]methyl}-2,2-dimethylpropyl (1S)-1-(oxo{[(1R)-1-phenylethyl]amino}acetyl)pentylcarbamate]
17 | 0.01 to 1 | CCCC[C@H](NC(=O)O[C@H](Cn1nccc1-c1ccc(C(F)(F)F)cc1)C(C)(C)C)C(=O)C(=O)Nc1ccn[nH]1 [Example 30, (1S)-2,2-dimethyl-1-({5-[4-(trifluoromethyl)phenyl]-1H-pyrazol-1-yl}methyl)propyl(1S)-1-[oxo(1H-pyrazol-5-ylamino)acetyl]pentylcarbamate]
18 | 0.01 to 1 | CCCC[C@H](NC(=O)O[C@H](c1nc2ccccc2s1)C(C)(C)C)C(=O)C(=O)Nc1ccn[nH]1 [Example 31, (1S)-1-(1,3-benzothiazol-2-yl)-2,2-dimethylpropyl(1S)-1-[oxo(1H-pyrazol-5-ylamino)acetyl]pentylcarbamate]
19 | 0.01 to 1 | CCCC[C@H](NC(=O)O[C@H](Cc1nnc(-c2ccccc2)o1)C(C)(C)C)C(=O)C(=O)N[C@H](C)c1ccccc1 [Example 15, (1R)-2,2-dimethyl-1-[(5-phenyl-1,3,4-oxadiazol-2-yl)methyl]propyl(1S)-1-(oxo{[(1R)-1-phenylethyl]amino}acetyl)pentylcarbamate]
20 | 0.01 to 1 | CCCC[C@H](NC(=O)O[C@H](COc1ccc(OCc2ccccc2)cc1)C(C)(C)C)C(=O)C(=O)Nc1ccn[nH]1 [Example 47, (1S)-1-{[4-(benzyloxy)phenoxy]methyl}-2,2-dimethylpropyl(1S)-1-[oxo(1H-pyrazol-5-ylamino)acetyl]pentylcarbamate]
21 | 0.01 to 1 | CCCC[C@H](NC(=O)O[C@H](Cn1ccc(-c2cccnc2)n1)C(C)(C)C)C(=O)C(=O)Nc1ccn[nH]1 [Example 44, (1S)-2,2-dimethyl-1-{[3-(3-pyridinyl)-1H-pyrazol-1-yl]methyl}propyl (1S)-1-[oxo(1H-pyrazol-5-ylamino)acetyl]pentylcarbamate]
22 | 0.01 to 1 | CCCC[C@H](NC(=O)O[C@H](Cc1nnc(-c2ccc(C(F)(F)F)cc2)o1)C(C)(C)C)C(=O)C(=O)N[C@H](C)c1ccccc1 [Example 17]
